How the values were obtained:
[1] = molecular target: T1, KRas-mediated phosphorylation of ERK in MKN1 cells (Homo sapiens, UniProt P01116); assay: Inhibition of KRas-mediated phosphorylation of ERK (HTRF), MKN1 cells; assay type: cell-based; settings: MKN1 cells (KRas WT); HTRF pERK; 3 h incubation
T1 construct: pERK HTRF read-out
Procedure: Inhibition of KRas Phosphorylation of ERK (HTRF) by Exemplary Compounds of Formula (Ia) or (Ib)
Cisbio HTRF Advanced pERK Assay Catalog #64AERPEH • Cells: MKN1, PSN1 • Procedure: • 1. Day 1: Seed 6,000 cells/well −25 μl/well in 384-well white solid bottom plate; RPM1_10% FBS. Incubate overnight at 37 °C/5% CO2. • 2.

[2] = molecular target: T2, KRas-mediated phosphorylation of ERK in H358 cells (Homo sapiens, UniProt P01116, G12C); assay: Inhibition of KRas-mediated phosphorylation of ERK (HTRF), H358 cells; assay type: cell-based; settings: HTRF pERK, 3 h incubation
T2 construct: pERK HTRF read-out
T2 sequence (P01116 1-188 isoform P01116-2 G12C): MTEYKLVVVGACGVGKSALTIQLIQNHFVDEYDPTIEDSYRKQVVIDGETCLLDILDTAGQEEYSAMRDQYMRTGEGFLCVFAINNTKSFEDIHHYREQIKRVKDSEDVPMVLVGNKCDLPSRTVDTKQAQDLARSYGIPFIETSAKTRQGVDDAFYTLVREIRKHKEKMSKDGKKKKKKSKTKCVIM

[3] = molecular target: T3, KRas G12C (Homo sapiens, UniProt P01116, G12C); assay: KRas binding assay, TR-FRET displacement of Cy5 labelled tracer; settings: 60-minute incubation at room temperature, 1% DMSO, pH 7.5
T3 construct: Biotinylated KRas (corresponding to amino acids 1-169, produced at Accelegan Inc.); biotin (biotinylated); purchased Accelegan Inc
T3 sequence (P01116 1-169 isoform P01116-2 G12C): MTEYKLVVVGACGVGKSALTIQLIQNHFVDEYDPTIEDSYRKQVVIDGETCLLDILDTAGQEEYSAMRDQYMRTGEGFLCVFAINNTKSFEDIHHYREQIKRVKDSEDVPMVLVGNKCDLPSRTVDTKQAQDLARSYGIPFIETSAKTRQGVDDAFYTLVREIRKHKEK
Procedure, shortened: (§1)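 KRas aa 1-169, biotinylated; Tb-streptavidin donor; 1% DMSO final. Buffer: HEPES 50 mM (pH 7.5), MgCl2 5 mM, DTT 1 mM, Tween-20 0.005%. 60 min, RT. IC50 from 4-parameter fit of POC.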

[4] = molecular target: T4, KRas WT (Homo sapiens, UniProt P01116); assay: as above; settings: 60-minute incubation at room temperature, 1% DMSO, pH 7.5
T4 construct: Biotinylated KRas (corresponding to amino acids 1-169, produced at Accelegan Inc.); biotin (biotinylated); purchased Accelegan Inc
T4 sequence (P01116 1-169 isoform P01116-2): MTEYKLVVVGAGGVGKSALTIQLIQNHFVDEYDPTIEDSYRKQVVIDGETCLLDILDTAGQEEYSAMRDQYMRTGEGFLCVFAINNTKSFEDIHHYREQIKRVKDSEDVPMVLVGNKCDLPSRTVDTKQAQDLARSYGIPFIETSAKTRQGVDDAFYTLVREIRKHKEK
Procedure, shortened: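 Displacement measured on KRas residues 1-169 (biotinylated, terbium-streptavidin labelled); 1 h, RT; 1% DMSO final; HEPES pH 7.5 / MgCl2 / Tween-20 / DTT. IC50: 4-parameter fit.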

[5] = molecular target: T5, KRas G12S (Homo sapiens, UniProt P01116, G12S); assay: as above; settings: 60-minute incubation at room temperature, 1% DMSO, pH 7.5
T5 construct: Biotinylated KRas (corresponding to amino acids 1-169, produced at Accelegan Inc.); biotin (biotinylated); purchased Accelegan Inc
T5 sequence (P01116 1-169 isoform P01116-2 G12S): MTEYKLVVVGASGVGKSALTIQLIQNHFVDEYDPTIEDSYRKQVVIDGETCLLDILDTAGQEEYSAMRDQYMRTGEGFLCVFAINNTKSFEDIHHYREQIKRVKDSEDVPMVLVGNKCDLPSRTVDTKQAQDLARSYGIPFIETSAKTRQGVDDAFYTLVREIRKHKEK
Procedure, shortened: as §1

[6] = molecular target: T6, KRas-mediated phosphorylation of ERK in A549 cells (Homo sapiens, UniProt P01116, G12S); assay: Inhibition of KRas-mediated phosphorylation of ERK (HTRF), A549 cells; assay type: cell-based; settings: HTRF pERK, 3 h incubation
T6 construct: pERK HTRF read-out
T6 sequence (P01116 1-188 isoform P01116-2 G12S): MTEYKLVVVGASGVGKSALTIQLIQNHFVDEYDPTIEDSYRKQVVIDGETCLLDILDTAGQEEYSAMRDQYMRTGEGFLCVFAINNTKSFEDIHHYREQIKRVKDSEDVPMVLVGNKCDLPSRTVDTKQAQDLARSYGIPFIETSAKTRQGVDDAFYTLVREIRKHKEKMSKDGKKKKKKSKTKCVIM

T1 sequence (P01116 1-188 isoform P01116-2): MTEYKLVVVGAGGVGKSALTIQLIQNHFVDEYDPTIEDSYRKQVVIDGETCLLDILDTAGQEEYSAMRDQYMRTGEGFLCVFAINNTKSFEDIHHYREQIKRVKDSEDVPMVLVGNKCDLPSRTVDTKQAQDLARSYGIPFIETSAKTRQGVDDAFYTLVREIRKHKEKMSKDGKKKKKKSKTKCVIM

IC50 [1] [nM] | IC50 [2] [nM] | IC50 [3] [nM] | IC50 [4] [nM] | IC50 [5] [nM] | IC50 [6] [nM] | SMILES
56 | 5 | 11 | 44 | 12 | 14 | N#Cc1c(N)sc2c(F)ccc(-c3c(C(F)(F)F)cc4c(N5CCC(C(=O)Oc6ccccc6)CC5)nc(OC[C@@]56CCCN5C[C@H](F)C6)nc4c3F)c12 [Example 295, phenyl 1-(7-(2-amino-3-cyano-7-fluorobenzo[b]thiophen-4-yl)-8-fluoro-2-(((2R,7aS)-2-fluorotetrahydro-1H-pyrrolizin-7a(5H)-yl)methoxy)-6-(trifluoromethyl)quinazolin-4-yl)piperidine-4-carboxylate]
318 | 15 | 3 | 30 | 3 | 16 | N#Cc1c(N)sc2c(F)ccc(-c3c(Cl)cc4c(N5CCC(C(=O)Oc6cccnc6)CC5)nc(OC[C@@]56CCCN5C[C@H](F)C6)nc4c3F)c12 [Example 296, pyridin-3-yl 1-(7-(2-amino-3-cyano-7-fluorobenzo[b]thiophen-4-yl)-6-chloro-8-fluoro-2-(((2R,7aS)-2-fluorotetrahydro-1H-pyrrolizin-7a(5H)-yl)methoxy)quinazolin-4-yl)piperidine-4-carboxylate]
299 | 32 | 23 | 99 | 45 | 101 | N#Cc1c(N)sc2c(F)ccc(-c3c(Cl)cc4c(N5CCC(C(=O)Oc6cccc(Cl)c6)CC5)nc(OC[C@@]56CCCN5C[C@H](F)C6)nc4c3F)c12 [Example 297, 3-chlorophenyl 1-(7-(2-amino-3-cyano-7-fluorobenzo[b]thiophen-4-yl)-6-chloro-8-fluoro-2-(((2R,7aS)-2-fluorotetrahydro-1H-pyrrolizin-7a(5H)-yl)methoxy)quinazolin-4-yl)piperidine-4-carboxylate]
217 | 16 | 17 | 154 | 80 | 169 | N#Cc1c(N)sc2c(F)ccc(-c3c(Cl)cc4c(N5CCC(C(=O)Oc6ccccc6Cl)CC5)nc(OC[C@@]56CCCN5C[C@H](F)C6)nc4c3F)c12 [Example 298, 2-chlorophenyl 1-(7-(2-amino-3-cyano-7-fluorobenzo[b]thiophen-4-yl)-6-chloro-8-fluoro-2-(((2R,7aS)-2-fluorotetrahydro-1H-pyrrolizin-7a(5H)-yl)methoxy)quinazolin-4-yl)piperidine-4-carboxylate]
323 | 12 | 9 | 178 | 22 | 93 | N#Cc1c(N)sc2c(F)ccc(-c3c(Cl)cc4c(N5CCC(C(=O)Oc6ccc(F)cc6)CC5)nc(OC[C@@]56CCCN5C[C@H](F)C6)nc4c3F)c12 [Example 299, 4-fluorophenyl 1-(7-(2-amino-3-cyano-7-fluorobenzo[b]thiophen-4-yl)-6-chloro-8-fluoro-2-(((2R,7aS)-2-fluorotetrahydro-1H-pyrrolizin-7a(5H)-yl)methoxy)quinazolin-4-yl)piperidine-4-carboxylate]
408 | 9 | 9 | 163 | 85 | 115 | COc1ccccc1OC(=O)C1CCN(c2nc(OC[C@@]34CCCN3C[C@H](F)C4)nc3c(F)c(-c4ccc(F)c5sc(N)c(C#N)c45)c(Cl)cc23)CC1 [Example 300, 2-methoxyphenyl 1-(7-(2-amino-3-cyano-7-fluorobenzo[b]thiophen-4-yl)-6-chloro-8-fluoro-2-(((2R,7aS)-2-fluorotetrahydro-1H-pyrrolizin-7a(5H)-yl)methoxy)quinazolin-4-yl)piperidine-4-carboxylate]
264 | 20 | 16 | 142 | 43 | 113 | N#Cc1c(N)sc2c(F)ccc(-c3c(Cl)cc4c(N5CCC(C(=O)Oc6ccc(Cl)cc6)CC5)nc(OC[C@@]56CCCN5C[C@H](F)C6)nc4c3F)c12 [Example 301, 4-chlorophenyl 1-(7-(2-amino-3-cyano-7-fluorobenzo[b]thiophen-4-yl)-6-chloro-8-fluoro-2-(((2R,7aS)-2-fluorotetrahydro-1H-pyrrolizin-7a(5H)-yl)methoxy)quinazolin-4-yl)piperidine-4-carboxylate]
286 | 18 | 12 | 164 | 25 | 79 | N#Cc1c(N)sc2c(F)ccc(-c3c(Cl)cc4c(N5CCC(C(=O)Oc6cccc(F)c6)CC5)nc(OC[C@@]56CCCN5C[C@H](F)C6)nc4c3F)c12 [Example 302, 3-fluorophenyl 1-(7-(2-amino-3-cyano-7-fluorobenzo[b]thiophen-4-yl)-6-chloro-8-fluoro-2-(((2R,7aS)-2-fluorotetrahydro-1H-pyrrolizin-7a(5H)-yl)methoxy)quinazolin-4-yl)piperidine-4-carboxylate]
4 | 14 | 3 | 4 | 3 | 59 | CN1CC2(CCN(c3nc(OC[C@@]45CCCN4C[C@H](F)C5)nc4c(F)c(-c5ccc(F)c6sc(N)c(C#N)c56)c(Cl)cc34)CC2)C1=O [Example 303, 2-amino-4-(6-chloro-8-fluoro-2-(((2R,7aS)-2-fluorotetrahydro-1H-pyrrolizin-7a(5H)-yl)methoxy)-4-(2-methyl-1-oxo-2,7-diazaspiro[3.5]nonan-7-yl)quinazolin-7-yl)-7-fluorobenzo[b]thiophene-3-carbonitrile]
60 | 3 | 5 | 12 | 4 | 3 | CC(=O)N(C)C(=O)C(C)CCN(C)c1nc(OC[C@@]23CCCN2C[C@H](F)C3)nc2c(F)c(-c3ccc(F)c4sc(N)c(C#N)c34)c(Cl)cc12 (stereo partly drawn) [Example 304, N-acetyl-4-((7-(2-amino-3-cyano-7-fluorobenzo[b]thiophen-4-yl)-6-chloro-8-fluoro-2-(((2R,7aS)-2-fluorotetrahydro-1H-pyrrolizin-7a(5H)-yl)methoxy)quinazolin-4-yl)(methyl)amino)-N,2-dimethylbutanamide]
78 | 19 | 12 | 21 | 17 | 21 | COCCN(C(C)=O)C(=O)C1CCN(c2nc(OC[C@@]34CCCN3C[C@H](F)C4)nc3c(F)c(-c4ccc(F)c5sc(N)c(C#N)c45)c(Cl)cc23)CC1 [Example 305, N-acetyl-1-(7-(2-amino-3-cyano-7-fluorobenzo[b]thiophen-4-yl)-6-chloro-8-fluoro-2-(((2R,7aS)-2-fluorotetrahydro-1H-pyrrolizin-7a(5H)-yl)methoxy)quinazolin-4-yl)-N-(2-methoxyethyl)piperidine-4-carboxamide]
134 | 45 | 5 | 10 | 7 | 92 | CN(C(=O)CCCN(C)c1nc(OC[C@@]23CCCN2C[C@H](F)C3)nc2c(F)c(-c3ccc(F)c4sc(N)c(C#N)c34)c(Cl)cc12)C(=O)c1cnn(C)c1 [Example 306, N-(4-((7-(2-amino-3-cyano-7-fluorobenzo[b]thiophen-4-yl)-6-chloro-8-fluoro-2-(((2R,7aS)-2-fluorotetrahydro-1H-pyrrolizin-7a(5H)-yl)methoxy)quinazolin-4-yl)(methyl)amino)butanoyl)-N, 1-dimethyl-1H-pyrazole-4-carboxamide]

Source: US20260356856A1, “KRAS G12S AND G12C INHIBITORS” (MIRATI THERAPEUTICS, INC., priority 2023, published 2026)
